Data set [1] concerns SW48 human colorectal cancer cells (MSI-H cancer cells). The data set is described as follows: SW48 cell viability, CellTiter-Glo, 120 hours (Example B). Particulars: Table 2; for CC50: Homo sapiens, SW48, 120 h, read-out: SW48 pCC50, SW48 cell viability, 120 hours incubation (converted).
Data set [2] deals with T1, recombinant full-length WRN protein (1-1432) (Homo sapiens, UniProt Q14191).
T1 construct: recombinant full-length WRN protein (1-1432)
Put plainly: WRN unwinding activity, fluorogenic 384-well assay (Example A). The class given is biochemical. The conditions noted are these: WRN unwinding activity, 4 hr; Table 2; read-out: 4 hr UNW pIC50 (converted). The method, boiled down:
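Read-out is end-point unwinding of a fluorophore/quencher duplex (ex 525, em 598 nm) after 60 min with 200 μM ATP and 12 nM DNA (2× stocks), EDTA stop. Compound first sat 4 h with 200 pM WRN (2× stock) in pH 8.0 Tris buffer; four-parameter fit gives pIC50.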

Structures are written as SMILES.

T1 sequence (Q14191 whole entry): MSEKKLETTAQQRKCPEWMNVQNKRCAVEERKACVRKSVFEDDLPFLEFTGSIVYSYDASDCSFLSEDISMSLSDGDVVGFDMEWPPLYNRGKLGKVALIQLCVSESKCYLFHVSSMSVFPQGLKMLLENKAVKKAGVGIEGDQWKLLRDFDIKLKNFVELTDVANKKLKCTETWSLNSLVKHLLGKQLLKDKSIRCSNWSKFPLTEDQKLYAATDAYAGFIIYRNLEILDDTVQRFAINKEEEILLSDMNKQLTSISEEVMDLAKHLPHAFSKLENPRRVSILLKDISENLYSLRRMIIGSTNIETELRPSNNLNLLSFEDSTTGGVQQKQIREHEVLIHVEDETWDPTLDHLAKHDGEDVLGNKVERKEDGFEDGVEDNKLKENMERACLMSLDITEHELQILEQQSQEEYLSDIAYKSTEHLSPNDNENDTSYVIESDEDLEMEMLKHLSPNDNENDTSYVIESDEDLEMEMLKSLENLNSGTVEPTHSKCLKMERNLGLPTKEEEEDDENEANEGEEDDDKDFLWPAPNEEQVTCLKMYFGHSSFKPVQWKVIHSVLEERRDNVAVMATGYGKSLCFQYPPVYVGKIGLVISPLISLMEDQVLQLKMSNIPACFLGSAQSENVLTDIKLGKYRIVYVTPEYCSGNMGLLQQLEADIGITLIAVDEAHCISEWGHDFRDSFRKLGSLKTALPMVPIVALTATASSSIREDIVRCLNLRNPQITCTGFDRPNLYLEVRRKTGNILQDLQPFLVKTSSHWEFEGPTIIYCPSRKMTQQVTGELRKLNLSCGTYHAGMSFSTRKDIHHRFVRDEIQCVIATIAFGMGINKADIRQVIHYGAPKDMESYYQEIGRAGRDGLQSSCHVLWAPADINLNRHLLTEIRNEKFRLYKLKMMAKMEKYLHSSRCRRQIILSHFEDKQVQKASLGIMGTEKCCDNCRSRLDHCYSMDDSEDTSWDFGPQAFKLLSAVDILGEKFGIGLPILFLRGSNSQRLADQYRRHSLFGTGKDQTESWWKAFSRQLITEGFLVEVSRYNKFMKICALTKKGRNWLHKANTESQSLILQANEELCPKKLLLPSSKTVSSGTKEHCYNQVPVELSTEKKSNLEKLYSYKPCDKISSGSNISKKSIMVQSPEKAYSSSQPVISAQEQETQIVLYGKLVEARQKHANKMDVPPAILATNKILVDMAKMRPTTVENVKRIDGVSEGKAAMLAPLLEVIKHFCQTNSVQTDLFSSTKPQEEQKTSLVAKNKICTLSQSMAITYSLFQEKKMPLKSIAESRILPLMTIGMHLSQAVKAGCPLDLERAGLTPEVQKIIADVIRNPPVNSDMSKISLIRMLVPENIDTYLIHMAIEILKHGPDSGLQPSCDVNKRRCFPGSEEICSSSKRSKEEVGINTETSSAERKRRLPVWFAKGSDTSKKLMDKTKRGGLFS

Regarding `Cc1nc2cc(S(=O)(=O)N(C)c3cnc([C@@H]4CCC[C@H](C(=O)Nc5ccc(C(F)(F)F)cc5F)[C@H]4C(=O)O)cn3)ccc2n1C` (relative stereo) [Example 165, rel-(1R,2R,6S)-2-((2-fluoro-4-(trifluoromethyl)phenyl)carbamoyl)-6-(5-((N,1,2-trimethyl-1H-benzo[d]imidazole)-5-sulfonamido)pyrazin-2-yl)cyclohexane-1-carboxylic acid], in data set [1], the CC50 is 25100 nM. Besides, in data set [2], the IC50 is 25.1 nM.
Regarding `Cc1nc2cc(S(=O)(=O)N(C)c3ccc([C@H]4C[C@@H](OCC5COC5)C[C@@H](C(=O)Nc5ccc(C(F)(F)F)cc5F)[C@@H]4C(=O)O)cc3)ccc2n1C` (relative stereo) [Example 282, rel-(1R,2R,4R,6S)-2-((2-fluoro-4-(trifluoromethyl)phenyl)carbamoyl)-4-(oxetan-3-ylmethoxy)-6-(4-((N,1,2-trimethyl-1H-benzo[d]imidazole)-5-sulfonamido)phenyl)cyclohexane-1-carboxylic acid], the CC50 in data set [1] was 63.1 nM. Further, the IC50 in data set [2] was 1.58 nM.
In the case of `COC12CC(CO[C@@H]3C[C@H](C(=O)Nc4ccc(C(F)(F)F)cc4F)[C@@H](C(=O)O)[C@H](c4ccc(N(C)S(=O)(=O)c5ccc6c(c5)nc(C)n6C)cc4)C3)(C1)C2` (relative stereo) [Example 331, rel-(1R,2R,4R,6S)-2-((2-fluoro-4-(trifluoromethyl)phenyl)carbamoyl)-4-((3-methoxybicyclo[1.1.1]pentan-1-yl)methoxy)-6-(4-((N,1,2-trimethyl-1H-benzo[d]imidazole)-5-sulfonamido)phenyl)cyclohexane-1-carboxylic acid], the CC50 in data set [1] was 20000 nM. For the same compound, the IC50 in data set [2] is 251 nM.
The like results for `Cc1nc2cc(S(=O)(=O)N(C)c3ccc([C@@H]4C[C@H](N5CCOCC5)C[C@H](C(=O)Nc5ccc(C(F)(F)F)cc5F)[C@H]4C(=O)O)cc3)ccc2n1C` (relative stereo) [Example 338, rel-(1R,2R,4R,6S)-2-((2-fluoro-4-(trifluoromethyl)phenyl)carbamoyl)-4-morpholino-6-(4-((N,1,2-trimethyl-1H-benzo[d]imidazole)-5-sulfonamido)phenyl)cyclohexane-1-carboxylic acid] were, in that order, 15800 nM and 79.4 nM.
On to `Cc1nc2cc(S(=O)(=O)N(C)c3ccc([C@H]4C[C@@H](N5CCCCC5)C[C@@H](C(=O)Nc5ccc(C(F)(F)F)cc5F)[C@@H]4C(=O)O)cc3)ccc2n1C` (relative stereo) [Example 348, rel-(1R,2R,4R,6S)-2-((2-fluoro-4-(trifluoromethyl)phenyl)carbamoyl)-4-(piperidin-1-yl)-6-(4-((N,1,2-trimethyl-1H-benzo[d]imidazole)-5-sulfonamido)phenyl)cyclohexane-1-carboxylic acid], for which, in data set [1], the CC50 was 398 nM. Besides, the IC50 in data set [2] was 1.58 nM.
In the case of `Cc1nc2cc(S(=O)(=O)N(C)c3ccc([C@H]4C[C@H](N5CCCCC5)C[C@@H](C(=O)Nc5ccc(C(F)(F)F)cc5F)[C@@H]4C(=O)O)cc3)ccc2n1C` (relative stereo) [Example 349, rel-(1R,2R,4S,6S)-2-((2-fluoro-4-(trifluoromethyl)phenyl)carbamoyl)-4-(piperidin-1-yl)-6-(4-((N,1,2-trimethyl-1H-benzo[d]imidazole)-5-sulfonamido)phenyl)cyclohexane-1-carboxylic acid], the CC50 in data set [1] is 12600 nM. In addition, in data set [2], the IC50 was 251 nM.
The corresponding values for `Cc1nc2cc(S(=O)(=O)N(C)c3ccc([C@H]4C[C@@H](N5CC6(F)CC5C6)C[C@@H](C(=O)Nc5ccc(C(F)(F)F)cc5F)[C@@H]4C(=O)O)cc3)ccc2n1C` (relative stereo) [Example 398, rel-(1R,2R,4R,6S)-2-((2-fluoro-4-(trifluoromethyl)phenyl)carbamoyl)-4-(4-fluoro-2-azabicyclo[2.1.1]hexan-2-yl)-6-(4-((N,1,2-trimethyl-1H-benzo[d]imidazole)-5-sulfonamido)phenyl)cyclohexane-1-carboxylic acid] are 25100 nM and 100 nM.
The like results for `Cc1nc2cc(S(=O)(=O)N(C)c3ccc([C@H]4CCC[C@H](C(=O)Nc5ccc(C(C)C)cc5)[C@@H]4C(=O)O)cc3)ccc2n1C` (single isomer, unassigned) [Example 73] were, in that order, 3980 nM and 1.26 nM.
For the compound `Cc1nc2cc(S(=O)(=O)N(C)c3ccc([C@H]4CCC[C@@H](C(=O)Nc5ccc(C(C)C)cc5)[C@H]4C(=O)O)cc3)ccc2n1C` (single isomer, unassigned) [Example 77], in data set [1], the CC50 was 3980 nM. Moreover, the IC50 in data set [2] was 3.98 nM.
Take `Cc1nc2cc(S(=O)(=O)N(C)c3ccc([C@H]4CCC[C@@H](C(=O)Nc5ccc(C(C)C)cc5)[C@@H]4C(=O)O)cc3)ccc2n1C` (single isomer, unassigned) [Example 80]: the CC50 in data set [1] is 501 nM. Besides, the IC50 in data set [2] is 1.58 nM.
`Cc1nc2cc(S(=O)(=O)N(C)c3ccc([C@H]4CCC[C@@H](C(=O)Nc5ccc(C(F)(F)F)cc5F)[C@@H]4C(=O)O)cc3)ccc2n1C` (single isomer, unassigned) [Example 84]: the “SW48 pCC50” value in data set [1] (SW48 cell viability, 120 hours incubation) came to 5.3. Also, the IC50 in data set [2] was 158 nM.
As to `CN(c1ccc([C@H]2CCC[C@@H](C(=O)Nc3ccc(C(F)(F)F)cc3F)[C@@H]2C(=O)O)cc1)S(=O)(=O)c1ccc2[nH]cnc2c1` (single isomer, unassigned) [Example 86], the CC50 in data set [1] was 2510 nM. Further, the IC50 in data set [2] is 1.58 nM.
Turning to `Cc1nc2cc(S(=O)(=O)N(C)c3ccc([C@H]4CCC[C@@H](C(=O)Nc5ccc(C(F)(F)F)cc5F)[C@@H]4C(=O)O)cc3)ccc2[nH]1` (single isomer, unassigned) [Example 92], the CC50 in data set [1] was 794 nM. Besides, the IC50 in data set [2] is 1.58 nM.
For the compound `Cc1nc2cc(S(=O)(=O)N(C)c3ccc([C@H]4C[C@@H](O)C[C@@H](C(=O)Nc5ccc(C(F)(F)F)cc5F)[C@@H]4C(=O)O)cc3)ccc2n1C` (single isomer, unassigned) [Example 145], the CC50 in data set [1] is 1260 nM. Further, in data set [2], the IC50 was 1.58 nM.
As to `[2H]C([2H])([2H])O[C@@H]1C[C@H](c2ccc(N(C)S(=O)(=O)c3ccc4c(c3)nc(C)n4C)cc2)[C@@H](C(=O)O)[C@H](C(=O)Nc2ccc(C(F)(F)F)cc2F)C1` (single isomer, unassigned) [Example 147], the CC50 in data set [1] was 12600 nM. Also, the IC50 in data set [2] is 79.4 nM.
As to `Cc1nc2cc(S(=O)(=O)N(C)c3ccc([C@H]4C[C@@H](Oc5ccccc5)C[C@@H](C(=O)Nc5ccc(C(F)(F)F)cc5F)[C@@H]4C(=O)O)cc3)ccc2n1C` (single isomer, unassigned) [Example 152], in data set [1], the CC50 was 2000 nM. Also, the IC50 in data set [2] is 10 nM.
As for `Cc1nc2cc(S(=O)(=O)N(C)c3ccc([C@@H]4CCC[C@H](C(=O)Nc5ccc(C(F)(F)F)cc5F)[C@H]4C(=O)O)nc3)ccc2n1C` (single isomer, unassigned) [Example 160], the CC50 in data set [1] is 15800 nM. In data set [2], the IC50 was 50.1 nM.
Consider `Cc1nc2cc(S(=O)(=O)N(C)c3ccc([C@@H]4CCC[C@H](C(=O)Nc5ccc(C(F)(F)F)cc5F)[C@H]4C(=O)O)cc3C#N)ccc2n1C` (single isomer, unassigned) [Example 162], for which the CC50 in data set [1] is 3160 nM. Besides, the IC50 in data set [2] is 2 nM.
In the case of `Cc1nc2cc(S(=O)(=O)N(C)c3cnc([C@H]4CCC[C@@H](C(=O)Nc5ccc(C(F)(F)F)cc5F)[C@@H]4C(=O)O)cn3)ccc2n1C` (single isomer, unassigned) [Example 164], the CC50 in data set [1] was 2510 nM. Further, in data set [2], the IC50 is 1.26 nM.
For the compound `CN1CCC[C@H](c2cccc(S(=O)(=O)N(C)c3ccc([C@H]4CCC[C@@H](COc5ccc(C(F)(F)F)cc5)[C@@H]4C(=O)O)cc3)c2)C1` (single isomer, unassigned) [Example 217, rel-(1R,2S,6R)-2-(4-((N-methyl-3-((S*)-1-methylpiperidin-3-yl)phenyl)sulfonamido)phenyl)-6-((4-(trifluoromethyl)phenoxy)methyl)cyclohexane-1-carboxylic acid], the CC50 in data set [1] was 10000 nM. Besides, the IC50 in data set [2] was 126 nM.
The like results for `CN1CCC[C@@H](c2cccc(S(=O)(=O)N(C)c3ccc([C@H]4CCC[C@@H](COc5ccc(C(F)(F)F)cc5)[C@@H]4C(=O)O)cc3)c2)C1` (single isomer, unassigned) [Example 218, rel-(1R,2S,6R)-2-(4-((N-methyl-3-((R*)-1-methylpiperidin-3-yl)phenyl)sulfonamido)phenyl)-6-((4-(trifluoromethyl)phenoxy)methyl)cyclohexane-1-carboxylic acid] were, in that order, 15800 nM and 39.8 nM.
For the compound `CCO[C@@H]1C[C@H](COc2ccc(C(F)(F)F)cc2)[C@@H](C(=O)O)[C@H](c2ccc(N(C)S(=O)(=O)c3ccc4c(c3)nc(C)n4C)cc2)C1` (single isomer, unassigned) [Example 220], the CC50 in data set [1] is 15800 nM. Moreover, the IC50 in data set [2] was 316 nM.
The corresponding values for `O=C(O)[C@@H]1[C@@H](C(=O)Nc2ccc(C(F)(F)F)cc2F)CCC[C@H]1c1ccc(NS(=O)(=O)c2ccc3[nH]cnc3c2)cc1` (single isomer, unassigned) [Example 225] are 7940 nM and 0.251 nM.
Take `N#Cc1cc([C@H]2CCC[C@@H](C(=O)Nc3ccc(C(F)(F)F)cc3F)[C@@H]2C(=O)O)ccc1Br` (single isomer, unassigned) [Example 230]: in data set [1], the CC50 was 7940 nM. Also, the IC50 in data set [2] is 100 nM.
On to `Cc1nc2cc(S(=O)(=O)N(C)c3ccc([C@@H]4CC[C@H](C)[C@H](C(=O)Nc5ccc(C(F)(F)F)cc5F)[C@H]4C(=O)O)cc3)ccc2n1C` (single isomer, unassigned) [Example 236], for which the CC50 in data set [1] is 7940 nM. Moreover, the IC50 in data set [2] is 631 nM.
